Test results taken from US4555572A, “Pyrazolo[3,4,5-kl]acridine compositions and methods for their production and use” (Warner-Lambert Company, priority 1984, dated 1985).
Where a name gives a salt, the structure may show the parent alone.

Legend:
HCT-8 cells = assay: in vitro proliferating human colon adenocarcinoma (HCA) cell screen, HCT-8; format: cell-based; conditions: HCT-8 cells, 60 to 65 hours, molar concentration for 50% inhibition of growth, read-out: HCA in vitro ID50 avg.
Method in brief: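 HCT-8 colon adenocarcinoma cells seeded in RPMI 1640 + 10% FCS, grown 48 h, then exposed to compounds for 60-65 h at 37 °C, 5% CO2. Nuclei counted by Coulter counter after lysis; ID50 is the molar concentration giving 50% growth inhibition.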

Alcaligenes viscolactis = assay: in vitro antibacterial/antifungal (ABF) agar-disk diffusion assay; format: cell-based; conditions: read-out: ABF zone diameter A. viscol.; for zone of inhibition at 100 µg/mL: dose .1 mg/ml
Procedure: (§1) (b) Another test protocol is the in vitro antibacterial/antifungal (ABF) test. Compounds are tested for antimicrobial activity in an agar-disk diffusion assay, a standard microbiological technique for testing antibiotics. After incubation of each culture with a test compound, a zone of inhibition is determined. The zone diameter (mm) of active compounds ranges from a minimum of 14 mm to as high as 60 mm, with a greater diameter reflecting higher activity. For convenience, values are reported for (Alcaligenes viscolactis, Sarcina lutea, Branhamella catarrhalis, Bacillus subtilis, and Streptococcus faecalis.

Bacillus subtilis = assay: as above; format: cell-based; conditions: for zone of inhibition at 100 µg/mL / zone of inhibition at 500 µg/mL: Bacillus subtilis, read-out: ABF zone diameter B. subtil.; for zone of inhibition at 100 µg/mL: dose .1 mg/ml; for zone of inhibition at 500 µg/mL: dose .5 mg/ml; for ABF zone diameter B. subtil.: dose not given
Procedure: as §1

Branhamella catarrhalis = assay: as above; format: cell-based; conditions: Moraxella catarrhalis, read-out: ABF zone diameter B. catarrh.; for zone of inhibition at 100 µg/mL: dose .1 mg/ml; for zone of inhibition at 500 µg/mL: dose .5 mg/ml
Procedure: as §1

Sarcina lutea = assay: as above; format: cell-based; conditions: Micrococcus luteus, read-out: ABF zone diameter S. lutea; for zone of inhibition at 100 µg/mL: dose .1 mg/ml; for zone of inhibition at 500 µg/mL: dose .5 mg/ml; for zone of inhibition at 1000 µg/mL: dose 1 mg/ml
Procedure: as §1

Streptococcus faecalis = assay: as above; format: cell-based; conditions: Enterococcus faecalis, read-out: ABF zone diameter S. faecalis; for zone of inhibition at 500 µg/mL: dose .5 mg/ml; for zone of inhibition at 1000 µg/mL: dose 1 mg/ml
Procedure: as §1

[1] = test system: lymphocytic leukemia P388; assay: in vivo lymphocytic leukemia P388 test; set-up: species or system CD2 F1 mice; conditions: Mus musculus, P388, ip, 120 h, intraperitoneally once daily for five days, read-out: P388 in vivo T/C × 100
Method in brief: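 CD2 F1 mice (6–7 per group) inoculated i.p. with P388 ascitic cells; compound dosed i.p. once daily for 5 consecutive days after inoculation. Survival followed 30 days; efficacy as treated/control survival time ×100 (≥125 criterion); "toxic" if all animals died within 4 days of first dose.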

| IC50 (HCT-8 cells) | Structure (SMILES) | zone of inhibition at 100 µg/mL (Alcaligenes viscolactis) | zone of inhibition at 100 µg/mL (Bacillus subtilis) | zone of inhibition at 100 µg/mL (Branhamella catarrhalis) | zone of inhibition at 500 µg/mL (Streptococcus faecalis) | response vs control in vivo at 6.25 mg/kg [1] | response vs control in vivo at 12.5 mg/kg [1] | response vs control in vivo at 25 mg/kg [1] | zone of inhibition at 500 µg/mL (Sarcina lutea) | response vs control in vivo at 50 mg/kg [1] | further results |
| --- | --- | --- | --- | --- | --- | --- | --- | --- | --- | --- | --- |
| 300 nM | CCN(CC)CCn1nc2c3c(c([N+](=O)[O-])ccc31)Nc1ccccc1-2 [Example 1, N,N-Diethyl-5-nitropyrazolo[3,4,5-kl]acridine-2(6H)-ethanamine, methanesulfonate (1:1)] | 22 mm | 15 mm | 17 mm | 17 mm | 165% |  |  |  |  | zone of inhibition at 100 µg/mL (Sarcina lutea): 14 mm; response vs control in vivo at 2.5 mg/kg ([1]; 2.50 mg/kg): 122%; response vs control in vivo at 5 mg/kg ([1]; 5.00 mg/kg): 163% |
| 1000 nM | CCN(CC)CCn1nc2c3c(c([N+](=O)[O-])ccc31)N(C)c1ccccc1-2 [Example 2, N,N-Diethyl-6-methyl-5-nitropyrazolo[3,4,5-kl]acridine-2(6H)-ethanamine, methanesulfonate] | 20 mm | 18 mm | 17 mm | 16 mm |  | 126% | 184% |  |  |  |
|  | O=[N+]([O-])c1ccc2c3c(nn2CCNCCO)-c2ccccc2Nc13 [Example 3, 2-[[2-(5-Nitropyrazolo[3,4,5-kl[acridin-2(6H)-yl)ethyl]amino]ethanol, monohydrochloride] | 21 mm | 18 mm |  | 15 mm | 132% | 158% | 185% | 14 mm |  | zone of inhibition at 500 µg/mL (Branhamella catarrhalis): 25 mm; response vs control in vivo at 3.12 mg/kg [1]: 122% |
|  | CN1c2ccccc2-c2nn(CCNCCO)c3ccc([N+](=O)[O-])c1c23 [Example 4, 2-[[2-[6-Methyl-5-nitropyrazolo[3,4,5-kl-acridin-2-(6H)-yl]ethyl]amino]ethanol, methanesulfonate] | 19 mm | 20 mm | 16 mm | 18 mm |  |  | 120% | 19 mm | 180% |  |
| 120 nM | CCN(CC)CCn1nc2c3c(c([N+](=O)[O-])ccc31)Nc1ccc(OC)cc1-2 [Example 5, N,N-Diethyl-9-methoxy-5-nitropyrazolo-[3,4,5-kl]acridine-2(6H)-ethanamine, methanesulfonate (1:1)] | 18 mm | 15 mm | 16 mm |  | 158% | 197% | 242% | 14 mm |  | zone of inhibition at 1000 µg/mL (Streptococcus faecalis): 14 mm; response vs control in vivo at 3.12 mg/kg [1]: 143% |
| 310 nM | CCN(CC)CCn1nc2c3c(c([N+](=O)[O-])ccc31)N(C)c1ccc(OC)cc1-2 [Example 6, N,N-Diethyl-9-methoxy-6-methyl-5-nitropyrazolo[3,4,5-kl]acridine-2(6H)-ethanamine, monomethanesulfonate] | 15 mm |  |  |  | 142% | 151% | 173% | 15 mm | 230% | zone of inhibition at 500 µg/mL (Bacillus subtilis): 19 mm; zone of inhibition at 500 µg/mL (Branhamella catarrhalis): 16 mm; zone of inhibition at 1000 µg/mL (Streptococcus faecalis): 15 mm |
|  | COc1ccc2c(c1)-c1nn(CCNCCO)c3ccc([N+](=O)[O-])c(c13)N2 [Example 7, 2-[[2-(9-Methoxy-5-nitropyrazolo[3,4,5-kl]-acridin-2(6H)yl)ethyl]aminoethanol, monohydrochloride] |  |  | 14 mm |  | 138% | 138% | 149% |  | 163% | zone of inhibition at 500 µg/mL (Bacillus subtilis): 18 mm; zone of inhibition at 1000 µg/mL (Sarcina lutea): 14 mm; zone of inhibition at 1000 µg/mL (Streptococcus faecalis): 14 mm |
|  | CCN(CC)CCn1nc2ccc([N+](=O)[O-])c3c2c1-c1ccccc1N3 [Example 8, yl-5-nitropyrazolo[3,4,5-kl]acridine-1(6H)-ethanamine, monomethanesulfonate] | 23 mm |  |  | 18 mm |  | 140% |  | 18 mm | 211% | ABF zone diameter B. subtil. (Bacillus subtilis): 0 mm; zone of inhibition at 10 µg/mL (Branhamella catarrhalis; dose .01 mg/ml): 15 mm |
|  | CCN(CC)CCn1nc2ccc([N+](=O)[O-])c3c2c1-c1cc(OC)ccc1N3.CS(=O)(=O)O [Example 9, N,N-Diethyl-9-methoxy-5-nitropyrazolo[3,4,5-kl]acridine-1(6H)-ethanamine, monomethanesulfonate] |  |  | 16 mm | 18 mm |  | 120% | 135% |  | 167% | ABF zone diameter B. subtil. (Bacillus subtilis): 15 mm; zone of inhibition at 100 µg/mL (Sarcina lutea): 14 mm |
| 13 nM | CCN(CC)CCn1nc2c3c(c([N+](=O)[O-])ccc31)Nc1ccc(O)cc1-2 [Example 10, 2-[2-(Diethylamino)ethyl]-2,6-dihydro-5-nitropyrazolo[3,4,5 kl]acridin-9-ol, monomethanesulfonate] |  | 17 mm | 18 mm | 16 mm |  |  |  |  |  | zone of inhibition at 10 µg/mL (Alcaligenes viscolactis; dose .01 mg/ml): 15 mm; zone of inhibition at 1000 µg/mL (Sarcina lutea): 14 mm; response vs control in vivo at 0.38 mg/kg ([1]; 0.38 mg/kg): 138%; response vs control in vivo at 0.75 mg/kg ([1]; 0.75 mg/kg): 149%; response vs control in vivo at 1.5 mg/kg ([1]; 1.50 mg/kg): 158%; response vs control in vivo at 3 mg/kg ([1]; 3.00 mg/kg): 180% |

| Structure (SMILES) | IC50 (HCT-8 cells) | zone of inhibition at 100 µg/mL (Alcaligenes viscolactis) | zone of inhibition at 100 µg/mL (Bacillus subtilis) | zone of inhibition at 100 µg/mL (Branhamella catarrhalis) | zone of inhibition at 500 µg/mL (Streptococcus faecalis) | response vs control in vivo at 6.25 mg/kg [1] | response vs control in vivo at 12.5 mg/kg [1] | response vs control in vivo at 25 mg/kg [1] | zone of inhibition at 500 µg/mL (Sarcina lutea) | response vs control in vivo at 50 mg/kg [1] | further results |
| --- | --- | --- | --- | --- | --- | --- | --- | --- | --- | --- | --- |
| COc1ccc2c(c1)-c1nn(CCN(C)C)c3ccc([N+](=O)[O-])c(c13)N2 [Example 5a, 9-methoxy-N,N-dimethyl-5-nitropyrazolo[3,4,5-kl]acridine-2(6H)=-ethanamine, methanesulfonate] | 100 nM | 19 mm | 14 mm |  | 15 mm |  | 181% | 228% |  | 275% | zone of inhibition at 500 µg/mL (Branhamella catarrhalis): 21 mm; zone of inhibition at 1000 µg/mL (Sarcina lutea): 16 mm |
